Data published in paper PMC10987480, “Biological and mutational analyses of CXCR4–antagonist interactions and design of new antagonistic analogs” (Bioscience Reports, 2023).
Positions of bridges follow the written chain, without caps; N, C: chain ends. Non-standard residues stand in square brackets, D forms with d. Residues, ends and D or L forms follow the SMILES beside them. Chains are numbered I, II in the order given. No end group written: not given here. 2Nal = N[C@@H](Cc1ccc2ccccc2c1)C(=O)O; Lys(iPr) = CC(C)NCCCC[C@H](N)C(=O)O

Columns and labels:
CXCR4 [1] = conditions: previous studies by others; read-out: IC50, inhibition of calcium mobilization; cited from earlier work
From the text: To understand the receptor–ligand recognition mechanism involving CXCR4 and its antagonists, here in this study we conducted a series of comparative analyses of the biological activities and CXCR4 binding sites of eleven known CXCR4 antagonists, including the three mentioned above, using cell-based bioassays, CXCR4 site-directed mutagenesis and computer-aided molecular modeling.

CXCR4 F87A = biological target: T1, CXCR4 F87A (Homo sapiens, UniProt P61073, F87A); experiment: Competitive binding to CXCR4 mutant F87A (12G5, CHO cells); conditions: TM2, class of reduction vs wild-type CXCR4, 12G5 competition, averages of at least three independent experiments
T1 construct: expressed in transfected cells
Description: (§1) Plasmid pcDNA3-CXCR4 and mutated pcDNA3-CXCR4 were extracted and transfected into CHO cells using Lipofectamine 2000 according to the manufacturer’s guidelines. The selective medium containing G418 at a concentration of 1.2 mg/ml was applied to isolate stably transfected cells. CHO cells expressing wild-type CXCR4 and mutant CXCR4 were obtained using fluorescence-activated cell sorting (FACS).
(§2) All of the CXCR4 mutants were prepared using PCR technology. Briefly, pairs of asymmetrical primers containing the desired amino acid mutations (Supplementary Tables S1 and S2), each complementary to opposite strands of the pcDNA3–CXCR4, were designed for amplification by Q5® High-Fidelity DNA polymerase and the generation of mutated constructs. The methylated pcDNA3–CXCR4 templates were digested by DpnI. The mutated pcDNA3–CXCR4 was transformed into competent E. coli TOP10 for long-term storage and amplification.
(§3) The procedure for the CXCR4 competitive binding experiments was published previously. Briefly, CXCR4 antibody 12G5 (250 ng/ml) was incubated with 5 × 10^5 cells and varying concentrations of unlabeled compounds in a final volume of 100 μl of assay buffer (PBS with 0.5% BSA and 0.05% NaN3) in 96-well plates for 40 min on ice, after being washed with assay buffer once. The cells were incubated with FITC-conjugated second antibody IgG for 30 min on ice, then washed with assay buffer three times. The fluorescence intensity was measured for excitation at 485 nm and emission at 535 nm using multimode plate reader (PerkinElmer). The IC50 values were calculated using graphpad Prism 7. Experiments were performed at least three times.

CXCR4 Y116A = biological target: T2, CXCR4 Y116A (Homo sapiens, UniProt P61073, Y116A); experiment: Competitive binding to CXCR4 mutant Y116A (12G5, CHO cells); conditions: TM3, class of reduction vs wild-type CXCR4, 12G5 competition, averages of at least three independent experiments
T2 construct: expressed in transfected cells
Description: as §1, §2, §3

CXCR4 [2] = biological target: T3, CXCR4 (Homo sapiens, UniProt P61073); experiment: CXCR4-mediated internalization assay, CHO cells expressing CXCR4-EGFP (confocal); format: cell-based; set-up: expressed in transfected cells; conditions: same concentrations as in calcium mobilization assay; 50 nM SDF-1α; compared with their effect on calcium mobilization
Description: Figure 3 The inhibitory effect of the antagonists on CXCR4 internalization CHO cells expressed CXCR4-EGFP conjugates were seeded in 96-well plate with glass bottom. Untreated cells were used as a control. Cells were pre-treated with or without CXCR4 antagonists and internalized with 50 nM SDF-1α (scale bar: 5 μm). The concentrations of the antagonists used were the same as those for the calcium mobilization assay shown above. The data shown were representative of three independent experiments.
CXCR4 and EGFP were amplified using a primer shown in Supplementary Table S1. The pcDNA3 vector was digested by restriction-enzyme EcoR1 and Apa1. CXCR4 was digested by restriction-enzyme EcoR1 and Xba1. EGFP was digested by restriction-enzyme Xba1 and Apa1. CXCR4–EGFP conjugate was constructed by ligation of three DNA fragments using T4 ligase. The vector containing CXCR4 ligated EGFP at the C-terminus was transfected and expressed in CHO cells in 100 μl DMEM medium supplemented with 2% FBS at 1 × 10^5/ml which was seeded in 96-well black plate glass bottom and incubated at 37°C overnight. Following incubation with tested compounds for 10 min, 50 nM of SDF-1α was added to each well and the internalized CXCR4 was observed using a confocal microscopy (Zeiss LSM880).

CXCR4 [3] = biological target: T3, CXCR4; set-up: expressed in transfected cells; conditions: previously published result; ref 42 (table footnote; text b13 cites 46); read-out: IC50 (nM), inhibition of 12G5 binding to CXCR4; cited from earlier work
From the text: Table 1 Sequences and structures of eleven antagonists | column: IC50 (nM)

T3 sequence (P61073 whole entry): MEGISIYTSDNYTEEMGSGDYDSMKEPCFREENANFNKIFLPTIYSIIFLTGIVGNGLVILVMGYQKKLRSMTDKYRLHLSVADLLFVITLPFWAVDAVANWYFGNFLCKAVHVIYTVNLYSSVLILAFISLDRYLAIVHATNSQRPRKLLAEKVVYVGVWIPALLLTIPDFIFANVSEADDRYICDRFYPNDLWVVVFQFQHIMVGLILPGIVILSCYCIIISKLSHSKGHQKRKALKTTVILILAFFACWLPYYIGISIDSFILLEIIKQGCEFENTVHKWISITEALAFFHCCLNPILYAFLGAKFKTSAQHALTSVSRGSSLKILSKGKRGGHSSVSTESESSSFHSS
T1 sequence (P61073 whole entry F87A): as the sequence (P61073 whole entry) above, with F87A counted along it
T2 sequence (P61073 whole entry Y116A): as the sequence (P61073 whole entry) above, with Y116A counted along it

In the case of `NCCCCN(Cc1nc2ccccc2[nH]1)[C@H]1CCCc2cccnc21` [AMD11070], the IC50 (CXCR4 [1]) is listed as 9 nM, the “Competitive receptor binding activity, CXCR4 F87A” value (CXCR4 F87A) is listed as “+ (30–60% reduction compared with wild-type CXCR4)” and the “Competitive receptor binding activity, CXCR4 Y116A” value (CXCR4 Y116A) is listed as “+++”.
With `CC(C)NCCCC[C@H](NC(=O)[C@H]1CCC(=O)N[C@@H](Cc2ccccc2)C(=O)N[C@@H](Cc2ccc(O)cc2)C(=O)N[C@@H](CCCCNC(C)C)C(=O)N[C@H](CCCNC(=N)N)C(=O)N[C@@H](Cc2ccc3ccccc3c2)C(=O)NCC(=O)N1)C(N)=O` [LY2510924] (FY[Lys(iPr)][dR][2Nal]G[dE][Lys(iPr)]-NH2; lactam N-7 (inferred)) the “Effect on blocking CXCR4 endocytosis (in words)” value (CXCR4 [2]) was “lessened effect”.
For “LGASWHRPDKCCLGYQKRPLPQVLLSSWYPTSQLCSKPGVIFLTKRGRQVCADKSKDWVKKLMQQLPVTAR [vMIP-II, viral macrophage-inflammatory protein-II, full-length natural chemokine antagonist produced by human herpesvirus-8; recombinant from Peprotech]”, the “Competitive receptor binding activity, CXCR4 F87A” value (CXCR4 F87A) is listed as “+ (30–60% reduction compared with wild-type CXCR4)”, the “Competitive receptor binding activity, CXCR4 Y116A” value (CXCR4 Y116A) is listed as “++ (10–29% reduction compared with wild-type CXCR4)” and the IC50 (CXCR4 [3]) is listed as 10 nM.
For “I: [dL]G[dA][dS][dW][dH][dR][dP][dD][dK][dC][dC][dL]G[dY][dQ][dK][dR][dP][dL][dP] / II: [dL]G[dA][dS][dW][dH][dR][dP][dD][dK][dC][dC][dL]G[dY][dQ][dK][dR][dP][dL][dP] (disulfide I:11-II:11, I:12-II:12) [DV1 dimer]”, the “Competitive receptor binding activity, CXCR4 F87A” value (CXCR4 F87A) was “+ (30–60% reduction compared with wild-type CXCR4)”, the “Competitive receptor binding activity, CXCR4 Y116A” value (CXCR4 Y116A) was “+ (30–60% reduction compared with wild-type CXCR4)” and the “Effect on blocking CXCR4 endocytosis (in words)” value (CXCR4 [2]) was “lessened effect”.
For `c1cc(CN2CCCNCCNCCCNCC2)ccc1CN1CCCNCCNCCCNCC1` [AMD3100], the IC50 (CXCR4 [1]) is listed as […], the “Competitive receptor binding activity, CXCR4 F87A” value (CXCR4 F87A) is listed as “++ (10–29% reduction compared with wild-type CXCR4)” and the “Competitive receptor binding activity, CXCR4 Y116A” value (CXCR4 Y116A) is listed as “++ (10–29% reduction compared with wild-type CXCR4)”.
